In patent US7601736B2, “Pyridine derivatives, a process for their preparation and a pharmaceutical composition containing the same” (SK Chemicals Co., Ltd., priority 2003, dated 2009):

Test system: TNF-α
Experiment: Cytokine inhibitory activity in cells: LPS-induced TNF-α in RAW 264.7
Assay type: cell-based, murine
Settings: for inhibition at 1 µM / inhibition at 10 µM / inhibition at 100 µM / inhibition at 1000 µM: Mus musculus, RAW264.7, read-out: TNF-α Inhibition Rate (%); for inhibition at 1 µM / inhibition at 10 µM / inhibition at 100 µM / inhibition at 1000 µM / TNF-α Inhibition Rate (%): RAW 264.7, LPS 1 μg/mL; for inhibitory activity in RAW 264.7 cell line on the production of TNF-α, in words: compared to the control compounds
Method: General reagents used were purchased from Sigma-Aldrich chem. Co. and cytokine inhibitory activities were tested as follows. Mediums and reagents used in cell culture were purchased from GIBCO BRL (USA), and mouse TNF-α ELISA kit was purchased from R&D system (USA). The apparatus used ELISA reader (Spectra max-Plus 384, Molecular Device, USA).
Murine macrophage cell line RAW 264.7 was kindly provided by Korean Tissue Culture Center (KTCC). The cell line was cultured in DMEM medium containing 10% FBS, in a cell culturing device at the condition of 37° C., 5% CO2. First, murine RAW 264.7 was cultured in DMEM medium containing 10% FBS for about 24 hours, and cells were planted 200 μL each in 96 well plates at the concentration of 5×10^5/mL and cultured for about 24 hours. Then, test compounds were treated at various concentrations and then reacted at 37° C. for about 1 hour, wherein 1 μg/mL of lipopolysaccharide (LPS) was added thereto and reacted at 37° C. for about 12 hours. The supernatant was recovered and the amount of murine TNF-α on the medium was quantitated using ELISA kit. Thalidomide was respectively used as a positive and a negative control to compare the activities and the results are shown in the following tables 4a -4c.

| SMILES | inhibition at 1 µM (test conc. 1 μM) | inhibition at 10 µM (test conc. 10 μM) | inhibition at 100 µM (test conc. 100 μM) | inhibition at 1000 µM (test conc. 1 mM) | TNF-α Inhibition Rate (%) (test conc. 1 μM) | TNF-α Inhibition Rate (%) (test conc. 10 μM) | TNF-α Inhibition Rate (%) (test conc. 100 μM) | TNF-α Inhibition Rate (%) (test conc. 1 mM) | inhibitory activity in RAW 264.7 cell line on the production of TNF-α, in words |
| --- | --- | --- | --- | --- | --- | --- | --- | --- | --- |
| Cc1nc(Cl)cc2c1C(=O)OCC2 [Ex. 96, 6-chloro-8-methyl-3,4-dihydro-pyrano[3,4-c]pyridine-1-on] | 38% | 46% | 56% | 63% | – | – | – | – | – |
| Cc1nc(O)c2c(c1-c1ccccc1)CCOC2=O [Ex. 60, 8-hydroxy-6-methyl-5-phenyl-3,4-dihydro-pyrano[3,4-c]pyridine-1-on] | 39% | 48% | 56% | 78% | – | – | – | – | – |
| Cc1nc(-c2ccc3c(c2)OCO3)cc2c1C(=O)OCC2 [Ex. 99, 6-(benzo[d][1,3]dioxol-6-yl)-8methyl-3,4-dihydro-pyrano[3,4c]pyridine-1-on] | – | – | – | – | 9% | 19% | 22% | 35% | – |
| COc1nc(C)cc2c1C(=O)OCC2 [Ex. 22, 8-methoxy-6-methyl-3,4-dihydro-pyrano[3,4-c]pyridine-1-on] | – | 10% | 17% | 30% | – | – | – | – | – |
| Cc1cc2c(c(Oc3ccccc3)n1)C(=O)OCC2 [Ex. 50, 6-methyl-8-phenoxy-3,4-dihydro-pyrano[3,4-c]pyridine-1-on] | 5% | 9% | 19% | 25% | – | – | – | – | – |
| Cc1cc2c(c(Cl)n1)C(=O)OCC2 [Ex. 20, 8-chloro-6-methyl-3,4-dihydro-pyrano[3,4-c]pyridine-1-on] | 15% | 21% | 31% | 41% | – | – | – | – | – |
| Cc1cc2c(c(N3CCN(C)CC3)n1)C(=O)OCC2 [Ex. 34, 6-methyl-8-(4-methyl-piperazine-1-yl)-3,4-dihydro-pyrano[3,4-c]pyridine-1-on] | 58% | 62% | 70% | 80% | – | – | – | – | – |
| Cc1cc2c(c(NCc3ccccc3)n1)C(=O)OCC2 [Ex. 51, 8-benzylamino-6-methyl-3,4-dihydro-pyrano[3,4-c]pyridine-1-on] | 9% | 15% | 21% | 30% | – | – | – | – | – |
| Cc1cc2c(c(Nc3ccc(F)cc3)n1)C(=O)OCC2 [Ex. 35, 8-(4-fluoro-phenylamino)-6-methyl-3,4-dihydro-pyrano[3,4-c]pyridine-1-on] | 9% | 17% | 26% | 32% | – | – | – | – | – |
| O=C1CCC(N2C(=O)c3ccccc3C2=O)C(=O)N1 (stereo not drawn) [Thalidomide, reference compound] | 8% | 12% | 20% | 21% | – | – | – | – | – |
| Cc1cc2c(c(-c3ccco3)n1)C(=O)OCC2 [Ex. 27, 6-methyl-8-furan-2-yl-3,4-dihydro-pyrano[3,4-c]pyridine-1-on] | 30% | 43% | 68% | 81% | – | – | – | – | – |
| O=C1NC(c2ccccc2)Cc2ccncc21 (stereo not drawn) [Ex. 120b, 3-phenyl-3,4-dihydro-2H-[2,7]naphtyridine-1-on] | – | – | – | – | 26% | 30% | 32% | 42% | – |
| Cc1cc2c(c(C)n1)C(=O)OCC2 [Ex. 26, 6,8-dimethyl-3,4-dihydro-pyrano[3,4-c]pyridine-1-on] | – | 6% | 17% | 28% | – | – | – | – | – |
| Cc1nc(Cl)c2c(c1-c1ccccc1)CCOC2=O [Ex. 61, 8-chloro-6-methyl-5-phenyl-3,4-dihydro-pyrano[3,4-c]pyridine-1-on] | 87% | 100% | 100% | 100% | – | – | – | – | superiorities over to the control compounds |
| O=C1OCCc2cc(-c3ccccc3)nc(Cl)c21 [Ex. 73, 8-chloro-6-phenyl-3,4-dihydro-pyrano[3,4-c]pyridine-1-on] | 56% | 63% | 72% | 80% | – | – | – | – | – |
| Cc1cc2c(c(-c3ccccc3)n1)C(=O)OCC2 [Ex. 46, 6-methyl-8-phenyl-3,4-dihydro-pyrano[3,4-c]pyridine-1-on] | 3% | 9% | 19% | 29% | – | – | – | – | – |
| O=C1NCCc2ccncc21 [Ex. 116, 3,4-dihydro-2H-[2,7]naphtyridine-1-on] | – | – | – | – | – | 10% | 18% | 29% | – |
| Cc1nc(-c2ccco2)cc2c1C(=O)OCC2 [Ex. 98, 6-(furan-2-yl)-8-methyl-3,4-dihydro-pyrano[3,4-c]pyridine-1-on] | 56% | 64% | 72% | 87% | – | – | – | – | – |
| Cc1nc(-c2ccc(N(C)C)cc2)cc2c1C(=O)OCC2 [Ex. 100, 6-(4-(dimethylamino)phenyl)-8-methyl-3,4-dihydro-pyrano[3,4-c]pyridine-1-on] | – | 9% | 18% | 29% | – | – | – | – | – |
| Cc1cc2c(c(-c3ccc(Cl)cc3)n1)C(=O)OCC2 [Ex. 31, 8-(4-chloro-phenyl)-6-methyl-3,4-dihydro-pyrano[3,4-c]pyridine-1-on] | 100% | 100% | 100% | 100% | – | – | – | – | superiorities over to the control compounds |
| O=C1OCCc2cc(-c3ccccc3)ncc21 [Ex. 68, 6-phenyl-3,4-dihydro-pyrano[3,4-c]pyridine-1-on] | 50% | 58% | 65% | 76% | – | – | – | – | – |
| O=C1OC(c2ccccc2)Cc2ccncc21 (stereo not drawn) [Ex. 120a, 3-phenyl-3,4-dihydro-pyrano[3,4-c]pyridine-1-on] | 43% | 54% | 66% | 85% | – | – | – | – | – |
| Cc1cc2c(c(-c3cccs3)n1)C(=O)OCC2 [Ex. 28, 6-methyl-8-thiophene-2-yl-3,4-dihydro-pyrano[3,4-c]pyridine-1-on] | 8% | 27% | 37% | 59% | – | – | – | – | – |
| Cc1cc2c(c(Nc3ccc(Cl)cc3)n1)C(=O)OCC2 [Ex. 37, 8-(4-chloro-phenylamino)-6-methyl-3,4-dihydro-pyrano[3,4-c]pyridine-1-on] | 54% | 69% | 78% | 89% | – | – | – | – | – |
| Cc1ccc(Nc2nc(C)cc3c2C(=O)OCC3)cc1 [Ex. 39, 6-methyl-8-p-tolylamino-3,4-dihydro-pyrano[3,4-c]pyridine-1-on] | 9% | 22% | 31% | 40% | – | – | – | – | – |
| Cc1ncc2c(c1-c1ccccc1)CCOC2=O [Ex. 62, 6-methyl-5-phenyl-3,4-dihydro-pyrano[3,4-c]pyridine-1-on] | 60% | 78% | 89% | 100% | – | – | – | – | superiorities over to the control compounds |
| O=C1OCCc2c1cnc1ccccc21 [Ex. 112, 3,4-dihydro-2-oxa-9-aza-phenanthrene-1-on] | 24% | 28% | 33% | 35% | – | – | – | – | – |
| Cc1nc(-c2cccs2)cc2c1C(=O)OCC2 [Ex. 97, 8-methyl-6-(thiophene-2-yl)-3,4-dihydro-pyrano[3,4-c]pyridine-1-on] | 75% | 84% | 93% | 100% | – | – | – | – | superiorities over to the control compounds |
| S=C1OCCc2ccncc21 [Ex. 113, 3,4-dihydro-pyrano[3,4-c]pyridine-1-thione] | 10% | 19% | 28% | 42% | – | – | – | – | – |
| Cc1cc2c(c(-c3ccccn3)n1)C(=O)OCC2 [Ex. 29, 6-methyl-8-pyridine-2-yl-3,4-dihydro-pyrano[3,4-c]pyridine-1-on] | 10% | 15% | 18% | 30% | – | – | – | – | – |
